Counter-ions that a name gives are not always drawn.
Test system: hDMFa myofibroblast cells

Structure (SMILES) | Compound Myofibroblast Cytotoxicity Activity
Oc1ccc(C=Cc2cc(O)cc(O)c2)cc1 [Cmpd 829, Resveratrol] | ++
CCCCCCCCCCCCCCCC(=O)OC/C=C(C)/C=C/C=C(C)/C=C/C1=C(C)CCCC1(C)C [Cmpd 830, Retinyl (Vitamin A) Palmitate] | ++
CO[C@H]1/C=C/O[C@@]2(C)Oc3c(C)c(O)c4c(O)c(cc(O)c4c3C2=O)NC(=O)/C(C)=C\C=C\[C@H](C)[C@H](O)[C@@H](C)[C@@H](O)[C@@H](C)[C@H](OC(C)=O)[C@@H]1C [Cmpd 833, Rifamycin sodium salt] | ++
CO[C@H]1/C=C/O[C@@]2(C)Oc3c(C)c(O)c4c(O)c(c(/C=N/N5CCN(C6CCCC6)CC5)c(O)c4c3C2=O)NC(=O)/C(C)=C\C=C\[C@H](C)[C@H](O)[C@@H](C)[C@@H](O)[C@@H](C)[C@H](OC(C)=O)[C@@H]1C [Cmpd 834, Rifapentine] | +++
N=C(N/N=C/c1ccc(Cl)cc1)N/N=C/c1ccc(Cl)cc1 [Cmpd 838, Robenidine hydrochloride] | ++
C/C=C1\NC(=O)[C@H]2CSSCC/C=C/[C@H](CC(=O)N[C@H](C(C)C)C(=O)N2)OC(=O)[C@H](C(C)C)NC1=O [Cmpd 839, Romidepsin (FK228,depsipeptide)] | ++
CCCN1CCCC[C@H]1C(=O)Nc1c(C)cccc1C.CS(=O)(=O)O [Cmpd 840, Ropivacaine Mesilate] | ++
CN(C(=O)c1c(O)c2ccccc2n(C)c1=O)c1ccccc1 [Cmpd 841, Roquinimex] | ++
CC(C)c1nc(N(C)S(C)(=O)=O)nc(-c2ccc(F)cc2)c1/C=C/[C@@H](O)C[C@@H](O)CC(=O)[O-].CC(C)c1nc(N(C)S(C)(=O)=O)nc(-c2ccc(F)cc2)c1/C=C/[C@@H](O)C[C@@H](O)CC(=O)[O-].[Ca+2] [Cmpd 842, Rosuvastatin Calcium] | +++
NC(=O)c1cn(Cc2c(F)cccc2F)nn1 [Cmpd 843, Rufinamide] | +++
Cc1cncc(CN2CCC(=C3c4ccc(Cl)cc4CCc4cccnc43)CC2)c1.O=C(O)/C=C/C(=O)O [Cmpd 844, Rupatadine Fumarate] | +++
C[C@H]1O[C@@H](O[C@H]2CC[C@@]3(C)[C@@H](CC[C@]4(C)[C@@H]3C=C[C@]35OC[C@@]6(CCC(C)(C)C[C@H]63)[C@@H](O)C[C@]54C)[C@]2(C)CO)[C@H](O)[C@@H](O[C@@H]2O[C@H](CO)[C@@H](O)[C@H](O)[C@H]2O)[C@H]1O [Cmpd 846, Saikosaponin A] | +++++
CC(C)(C)NCC(O)c1ccc(O)c(CO)c1 (centres unmarked) [Cmpd 847, Salbutamol] | ++
OCc1cc(C(O)CNCCCCCCOCCCCc2ccccc2)ccc1O (centres unmarked) [Cmpd 849, Salmeterol xinafoate] | +++
C[n+]1cc2c3c(ccc2c2ccc4cc5c(cc4c21)OCO5)OCO3 [Cmpd 850, Sanguinarine] | +++++
C[n+]1cc2c3c(ccc2c2ccc4cc5c(cc4c21)OCO5)OCO3 [Cmpd 851, Sanguinarine chloride] | ++++
CC(C)(C)NC(=O)[C@@H]1C[C@@H]2CCCC[C@@H]2CN1C[C@@H](O)[C@H](Cc1ccccc1)NC(=O)[C@H](CC(N)=O)NC(=O)c1ccc2ccccc2n1 [Cmpd 852, Saquinavir mesylate] | ++++
N#C[C@@H]1C[C@@H]2C[C@@H]2N1C(=O)[C@@H](N)C12CC3CC(CC(O)(C3)C1)C2 [Cmpd 854, Saxagliptin hydrate] | ++
COc1cc2ccc(=O)oc2cc1O [Cmpd 857, Scopoletin] | ++
O=C(O)CCCCCCCCC(=O)O.O=C(O)CCCCCCCCC(=O)O [Cmpd 858, sebacate (decanedioate)] | ++

Structure (SMILES) | Compound Myofibroblast Cytotoxicity Activity
Clc1ccc(C(Cn2ccnc2)OCc2csc3c(Cl)cccc23)c(Cl)c1 (centres unmarked) [Cmpd 860, Sertaconazole nitrate] | +++++
CN[C@H]1CC[C@@H](c2ccc(Cl)c(Cl)c2)c2ccccc21 [Cmpd 861, Sertraline HCl] | ++++
CCCc1nn(C)c2c(=O)[nH]c(-c3cc(S(=O)(=O)N4CCN(C)CC4)ccc3OCC)nc12.CS(=O)(=O)O [Cmpd 862, Sildenafil mesylate] | ++
CC(C)(C)C(=O)Oc1ccc(S(=O)(=O)Nc2ccccc2C(=O)NCC(=O)O)cc1 [Cmpd 866, Sivelestat (ONO-5046)] | ++
O=C([O-])c1ccccc1.[Na+] [Cmpd 870, Sodium benzoate] | ++++
CCCCCCCCCCCCOS(=O)(=O)O [Cmpd 871, Sodium dodecyl sulfate] | +++++
O=P([O-])([O-])O.[Na+].[Na+] [Cmpd 874, Sodium phosphate dibasic] | ++++
C[C@H](CCC(=O)NCCS(=O)(=O)[O-])[C@H]1CC[C@H]2[C@@H]3[C@@H](O)C[C@@H]4C[C@H](O)CC[C@]4(C)[C@H]3CC[C@]12C.[Na+] [Cmpd 877, Sodium Tauroursodeoxycholate (TUDC)] | ++
C/C=C/C=C/C(=O)O [Cmpd 881, Sorbic acid] | ++
OC[C@@H](O)[C@@H](O)[C@H](O)[C@@H](O)CO [Cmpd 882, Sorbitol] | ++++
CC(C)NCC(O)c1ccc(NS(C)(=O)=O)cc1 (centres unmarked) [Cmpd 883, Sotalol hydrochloride] | +++
CN1CCN(c2nc(C3=C(c4c[nH]c5ccccc45)C(=O)NC3=O)c3ccccc3n2)CC1 [Cmpd 884, Sotrastaurin (AEB071)] | ++
CN[C@@H]1[C@H](O)[C@H](NC)[C@H]2O[C@@]3(O)C(=O)C[C@@H](C)O[C@H]3O[C@@H]2[C@H]1O [Cmpd 885, Spectinomycin (hydrochloride hydrate)] | +++
NCCCNCCCCNCCCN [Cmpd 887, Spermine] | ++
CCCCCCCCCCCCCCCCCC(=O)O [Cmpd 889, Stearic Acid] | +++
O=C(O)CCC(=O)Nc1ccc(S(=O)(=O)Nc2nccs2)cc1 [Cmpd 891, Succinylsulfathiazole] | ++
Nc1ccc(S(=O)(=O)NC(=O)c2ccccc2)cc1 [Cmpd 893, Sulfabenzamide] | ++
CC(=O)NS(=O)(=O)c1ccc(N)cc1 [Cmpd 894, Sulfacetamide sodium salt hydrate] | ++
Cc1ccnc(NS(=O)(=O)c2ccc(N)cc2)n1 [Cmpd 895, Sulfamerazine] | +++
Cc1nnc(NS(=O)(=O)c2ccc(N)cc2)s1 [Cmpd 896, Sulfamethizole] | ++++

Structure (SMILES) | Compound Myofibroblast Cytotoxicity Activity
Nc1ccc(S(N)(=O)=O)cc1 [Cmpd 898, Sulfanilamide] | ++++
Nc1ccc(S(=O)(=O)Nc2ccnn2-c2ccccc2)cc1 [Cmpd 899, Sulfaphenazole] | +++
Nc1ccc(S(=O)(=O)Nc2nccs2)cc1 [Cmpd 900, Sulfathiazole] | ++++
COc1cc(O)c(C(=O)c2ccccc2)cc1S(=O)(=O)O [Cmpd 901, Sulisobenzone] | ++
CC1(C)S[C@@H]2[C@H](NC(=O)[C@H](N)c3ccccc3)C(=O)N2[C@H]1C(=O)OCOC(=O)[C@@H]1N2C(=O)C[C@H]2S(=O)(=O)C1(C)C [Cmpd 902, Sultamicillin] | ++
Nc1c2c(nc3ccccc13)CCCC2 [Cmpd 906, Tacrine hydrochloride] | ++++
CC/C(=C(\c1ccccc1)c1ccc(OCCN(C)C)cc1)c1ccccc1 [Cmpd 911, Tamoxifen Citrate] | +++
Cc1coc2c1C(=O)C(=O)c1c-2ccc2c(C)cccc12 [Cmpd 912, Tanshinone I] | +++++
Cc1coc2c1C(=O)C(=O)c1c-2ccc2c1CCCC2(C)C [Cmpd 913, Tanshinone IIA] | +++++
Cc1c(S(=O)(=O)[O-])oc2c1C(=O)C(=O)c1c-2ccc2c1CCCC2(C)C.[Na+] [Cmpd 914, Tanshinone IIA---sulfonic sodium] | ++
Cn1nnc(-c2ccc(-c3ccc(N4C[C@H](CO)OC4=O)cc3F)cn2)n1 [Cmpd 920, Tedizolid HCl] | ++++
CO[C@H]1C[C@@H]2CC[C@@H](C)[C@@](O)(O2)C(=O)C(=O)N2CCCC[C@H]2C(=O)O[C@H]([C@H](C)C[C@@H]2CC[C@@H](OC(=O)C(C)(CO)CO)[C@H](OC)C2)CC(=O)[C@H](C)/C=C(\C)[C@@H](O)[C@@H](OC)C(=O)[C@H](C)C[C@H](C)/C=C/C=C/C=C/1C [Cmpd 924, Temsirolimus (CCl-779, NSC 683864)] | +++++
COc1cc([C@@H]2c3cc4c(cc3[C@@H](O[C@@H]3O[C@@H]5CO[C@@H](c6cccs6)O[C@H]5[C@H](O)[C@H]3O)[C@H]3COC(=O)[C@H]23)OCO4)cc(OC)c1O [Cmpd 925, Teniposide] | ++
CN(C/C=C/C#CC(C)(C)C)Cc1cccc2ccccc12 [Cmpd 926, Terbinafine] | ++
CN(C/C=C/C#CC(C)(C)C)Cc1cccc2ccccc12 [Cmpd 927, Terbinafine HCl] | ++++
CC(C)N1CCN(c2ccc(OCC3COC(Cn4cncn4)(c4ccc(Cl)cc4Cl)O3)cc2)CC1 (centres unmarked) [Cmpd 928, Terconazole] | ++
O=C(O)c1ccc(C(=O)O)cc1 [Cmpd 929, Terephthalic acid] | ++
CC1=CCC(O)(C(C)C)CC1 (centres unmarked) [Cmpd 931, Terpinen-4-ol] | ++
COc1cc2c(cc1OC)C1CC(=O)C(CC(C)C)CN1CC2 (centres unmarked) [Cmpd 933, Tetrabenazine] | +++

From patent US20260102359A1, “COMBINATION TREATMENT OF DERMAL AND TRANSDERMAL FIBROTIC DISEASES, DISORDERS AND ASSOCIATED PAIN AND INFLAMMATION” (ERESINA, LLC, priority 2022, published 2026)
